As a reminder, the pIC50 is −log10 of the IC50, conventionally taken in molar units. A high value points to a low IC50. What is called pEC50 is −log10 of the EC50, conventionally taken in molar units. As a reminder, the maximal fold induction is the ratio of treated to control signal. Low values mean a weak induction, high ones a strong induction.

From patent US20250214990A1, “DIACYLGLYCEROL KINASE (DGK) ALPHA INHIBITORS AND USES THEREOF” (Insilico Medicine IP Limited, priority 2022, published 2025) come the findings set out here.

pEC50, pIC50: −log10 of the molar value.

The target in one test is T1, DGKA (Homo sapiens, UniProt P23743).
T1 construct: purchased SignalChem D21-10BG
T1 sequence (P23743 whole entry): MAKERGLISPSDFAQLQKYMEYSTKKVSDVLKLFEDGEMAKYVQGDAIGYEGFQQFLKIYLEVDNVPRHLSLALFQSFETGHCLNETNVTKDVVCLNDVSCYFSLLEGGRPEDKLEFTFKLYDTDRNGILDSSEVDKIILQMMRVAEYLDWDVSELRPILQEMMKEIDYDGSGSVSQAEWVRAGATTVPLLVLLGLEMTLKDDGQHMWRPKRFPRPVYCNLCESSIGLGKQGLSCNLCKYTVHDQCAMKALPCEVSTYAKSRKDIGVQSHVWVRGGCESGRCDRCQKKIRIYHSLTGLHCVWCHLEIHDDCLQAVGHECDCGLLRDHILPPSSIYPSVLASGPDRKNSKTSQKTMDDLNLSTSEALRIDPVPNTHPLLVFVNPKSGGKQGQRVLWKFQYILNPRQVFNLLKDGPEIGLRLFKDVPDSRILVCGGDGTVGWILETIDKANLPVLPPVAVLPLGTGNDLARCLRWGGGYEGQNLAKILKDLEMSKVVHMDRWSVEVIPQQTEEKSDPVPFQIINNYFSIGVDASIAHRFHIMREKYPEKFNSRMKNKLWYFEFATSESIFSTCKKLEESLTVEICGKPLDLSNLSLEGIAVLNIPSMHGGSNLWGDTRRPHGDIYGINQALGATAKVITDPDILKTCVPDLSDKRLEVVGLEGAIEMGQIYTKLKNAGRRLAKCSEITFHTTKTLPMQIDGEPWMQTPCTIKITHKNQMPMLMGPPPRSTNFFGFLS
The test can be described thus: DGKA Inhibition ADP-Glo Assay. Type of test: biochemical. Particulars: 40 μM ATP. As for the experimental part:
The DGKA inhibition reactions were performed using ADP-Glo assay. The reactions were carried out in 50 mM HEPES, 100 mM NaCl, 10 mM MgCl2, 1 mM CaCl2, 0.005% TritonX-100 and 1 mM DTT as working solution (pH=7.5). 30 nL DMSO solution of each test compound (Top concentration […] with 10 point, 4-fold dilution series for each compound) were transferred to 384 well plate by Echo and 5 μL DGKA (SignalChem, D21-10BG) enzyme working solution at 2× final reaction concentration was added to each well. After incubated at 25° C. for 15 minutes, 5 μL substrate working solution contain 40 μM ATP (Promega, V915B) and 200 µM DLG (SignalChem, D430-59) were added to initiate reaction. After enzymatic reaction at 25° C. for 60 min, ADP Glo assay reagents (Promega, V9102) were added and luminescence was recorded using an EnVision following the instruction of manual. […] The IC50 value was calculated via a regression analysis of the inhibition rate.
In general terms: ADP-Glo first removes unused ATP, then detects ADP through luciferase.

The subject of another test is Human Pan T cells. Briefly: IL-2 Release Detection Assay. The conditions noted are these: T-cell; for pEC50: IL-2 in supernatant by ELISA, anti-CD3 pre-coated plate, 24 hours; for maximal fold induction: Top activation/DMSO control; for activity at 0.1 µM: curve value at 100 nM/DMSO control*100%, read-out: Activation % at 100 nM. It is filed as cell-based. As for the experimental part: Isolate Human Pan T cells from PBMC according to T cell isolation kit (Stemcell, 17951). The suspend T cell in RPMI 1640 medium containing 10% FBS, 1% PS and 55 µM β-Mer at a density of 3*10^6 cells/well/3 ml are seeded into 6 well plate, recovered overnight at 37° C.&[…]. Harvest overnight recovered T cells are suspended in fresh RPMI1640 medium containing 10% FBS, 1% PS and 55 μM f-Mer, seeded 1*10^5/well/200 μl cells into the anti-CD3 pre-coated 96 well plate. Add dilutions of compounds into the cells and incubate at 37° C.&5% CO2 for 24 hours. IL-2 in cell supernatant was detected by ELISA Kit (R&D, DY202). Fit the compound EC50 in non-linear regression equation: Y=Bottom+(Top−Bottom)/(1+10^((Log EC50−X)*HillSlope)), X=compound concentration, Y=Activation %. Top and Bottom: Plateaus in same units as Y. Log EC50: same log units as X. Activation fold: Top activation/DMSO control. Activation % at 100 nM: Activation of non-linear regression equation curve at the concentration of 100 nM/DMSO control*100%.
A general note: In an ELISA, binding on a coated surface is turned into a signal by an enzyme label.

With `Cn1c(=O)cc(N2CCOCc3c(C#CC4(C(F)(F)F)CC4)cccc32)c2cc(Cl)ccc21` [Example 3, 6-chloro-1-methyl-4-(6-((1-(trifluoromethyl)cyclopropyl)ethynyl)-2,3-dihydrobenzo[e][1,4]oxazepin-1(5H)-yl)quinolin-2(1H)-one], the pIC50 against DGKA was 8.00 to 9.00. In the test on Human Pan T cells, the pEC50 is 6.37, the maximal fold induction was 6.3 and the activity at 0.1 µM amounted to 247%.
Molecule `Cn1c(=O)cc(N2CCOCc3c(C#CC4(C(F)(F)F)CC4)cccc32)c2cc(C#N)ccc21` [Example 4, 1-methyl-2-oxo-4-(6-((1-(trifluoromethyl)cyclopropyl)ethynyl)-2,3-dihydrobenzo[e][1,4]oxazepin-1(5H)-yl)-1,2-dihydroquinoline-6-carbonitrile] had a pIC50 against DGKA of 8.00 to 9.00. In the test with Human Pan T cells, the pEC50 was 6.32, the maximal fold induction is 10 and the activity at 0.1 µM was 313%.
On the same counts, the results for `Cn1c(=O)nc(N2CCOCc3c(C#CC4(C(F)(F)F)CC4)cccc32)c2cc(F)ccc21` [Example 9, 6-fluoro-1-methyl-4-(6-((1-(trifluoromethyl)cyclopropyl)ethynyl)-2,3-dihydrobenzo[e][1,4]oxazepin-1(5H)-yl)quinazolin-2(1H)-one] are greater than 9.00, 5.86, 13.2 and 180%.
Consider `Cn1c(=O)c(C#N)c(N2CCOCc3c(C#CC4(C(F)(F)F)CC4)cccc32)c2cc(F)ccc21` [Example 10, 6-fluoro-1-methyl-2-oxo-4-(6-((1-(trifluoromethyl)cyclopropyl)ethynyl)-2,3-dihydrobenzo[e][1,4]oxazepin-1(5H)-yl)-1,2-dihydroquinoline-3-carbonitrile], for which the pIC50 against DGKA is 8.00 to 9.00. In addition, in the test on Human Pan T cells, the pEC50 was 5.58, the maximal fold induction came to 5.8 and the activity at 0.1 µM came to 95.5%.
Regarding `Cn1c(=O)nc(N2CCOCc3c(C#CC4(C(F)(F)F)CC4)cccc32)c2cc(Cl)c(OC3CCOC3)cc21` (stereo not drawn) [Example 11, 6-chloro-1-methyl-7-((tetrahydrofuran-3-yl)oxy)-4-(6-((1-(trifluoromethyl)cyclopropyl)ethynyl)-2,3-dihydrobenzo[e][1,4]oxazepin-1(5H)-yl)quinazolin-2(1H)-one], the pIC50 on DGKA is greater than 9.00. In the test with Human Pan T cells, the pEC50 is 6.47, the maximal fold induction amounted to 8.6 and the activity at 0.1 µM came out at 324%.
`Cn1c(=O)nc(N2CCOCc3c(C#CC4(C(F)(F)F)CC4)cccc32)c2cc(C#N)c(OCCO)cc21` [Example 14, 7-(2-hydroxyethoxy)-1-methyl-2-oxo-4-(6-((1-(trifluoromethyl)cyclopropyl)ethynyl)-2,3-dihydrobenzo[e][1,4]oxazepin-1(5H)-yl)-1,2-dihydroquinazoline-6-carbonitrile] showed a pIC50 at DGKA greater than 9.00. In addition, in the test on Human Pan T cells, the pEC50 is 6.58, the maximal fold induction amounted to 15.3 and the activity at 0.1 µM came to 639%.
`CCc1cccc2c1COCCN2c1nc(=O)n(C)c2cc(OCCO)c(C#N)cc12` [Example 45, 4-(6-ethyl-2,3-dihydrobenzo[e][1,4]oxazepin-1(5H)-yl)-7-(2-hydroxyethoxy)-1-methyl-2-oxo-1,2-dihydroquinazoline-6-carbonitrile] had a pIC50 at DGKA of 8.00 to 9.00.
In turn, `Cn1c(=O)nc(N2CCOCc3c(N4CCCC4)cccc32)c2cc(C#N)c(OCCO)cc21` [Example 46, 7-(2-hydroxyethoxy)-1-methyl-2-oxo-4-(6-(pyrrolidin-1-yl)-2,3-dihydrobenzo[e][1,4]oxazepin-1(5H)-yl)-1,2-dihydroquinazoline-6-carbonitrile] gave a pIC50 on DGKA greater than 9.00.
On the same count and under the same terms, the same measure for `Cn1c(=O)nc(N2CCOCc3c(C#CC4CC4)cccc32)c2cc(C#N)c(OCCO)cc21` [Example 47, 4-(6-(cyclopropylethynyl)-2,3-dihydrobenzo[e][1,4]oxazepin-1(5H)-yl)-7-(2-hydroxyethoxy)-1-methyl-2-oxo-1,2-dihydroquinazoline-6-carbonitrile]: greater than 9.00.
